{"source": "patent US8790653B2", "about": "“Peptide inhibitors for mediating stress responses” (Yeda Research and Development Co. Ltd., priority 2004, dated 2014)", "key": {"L12 cells with p53": {"test_system": "L12 cells with p53", "assay": "Hyperthermia-induced cell death in L12 cells with active p53 (trypan blue)", "assay_type": "cell-based", "conditions": "2 hours at 42° C., peptide 100 μg/ml", "protocol": "The selected candidate peptides were tested for their ability to interfere with the p53-mediated cellular stress response by testing their capacity to inhibit the response to hyperthermia of the L12 cell line (Wolf, 1984), which lacks endogenous p53 activity and had been stably transfected with the p53 gene or a control vector. In these cells, p53 activity induces growth arrest and cell survival rather than apoptosis in response to hyperthermia (Nitta, 1997).\nThe amount of cell death was assessed by staining the cells with the vital dye trypan blue (Sigma) and counting the ratio of dead/live cells per visual field with a light microscope.\nincubation for 2 hours at 42° C. induced death of all cells that lacked p53 and, in contrast, transient growth arrest and survival of about 80% of the cells with active p53. Four peptides, designated Stressin-1 to −4 (for STress RESponse Specific peptide INhibitor), were identified that at concentrations of 100 μg/ml inhibited p53-mediated growth arrest after hyperthermia and induced death of almost all cells with active p53, which is the response of L12 cells that lack p53 activity (Table 1); the peptide sequences are shown in Table 2."}, "BALB/c mice": {"test_system": "BALB/c mice", "assay": "Whole body γ-irradiation of BALB/c mice (radiation disease)", "assay_type": "in vivo", "conditions": "6.5 Gy, 500 μg/mouse intraperitoneally one hour after irradiation", "text": "To test whether Stressin peptide may protect an organism from death by excessive p53 activation and tissue failure by subjecting BALB/c mice to whole body […] (6.5 Gy). A retro-inverso peptide was used to determine whether prolonged in vivo half-life would give an advantage (see Example 6); retro-inverso peptides are resistant to proteases and consist of D-amino acids in reversed order, resulting in an altered peptide backbone but unchanged orientation of the side chains (Van Regenmortel, 1998).\nBALB/c mice were subjected to whole body γ-irradiation (6.5 Gy). One hour after irradiation, the mice received intraperitoneally either Stressin-1 (n=7; SEQ ID NO:1) or a modified, retro-inverso Stressin-1 peptide (n=7; SEQ ID NO:5), both at a concentration of 500 μg/mouse, or a sham injection with saline (n=6). The retro-inverso peptide was used to determine whether prolonged in vivo-half-life would give an advantage."}, "L12 cells": {"test_system": "L12 cells", "assay": "Cisplatin-induced p53-mediated cell death of L12 cells (DNA content, propidium iodide, FACS)", "assay_type": "cell-based", "conditions": "50 μM Cisplatin, 48 hours", "protocol": "L12 cells were treated for 48 hours with 50 μM of the DNA-damaging agent Cisplatin and p53-mediated cell death was determined by measuring the DNA content of cells stained with propidium iodide (FIG. 1). Cells incubated in the absence of peptide responded to Cisplatin treatment with p53-mediated cell death."}, "[1]": {"assay": "Ethanol toxic stress in primary hepatocyte cultures (trypan blue exclusion)", "assay_type": "cell-based", "conditions": "primary hepatocyte cultures", "protocol": "(§1) To learn whether Stressin peptide may protect from toxic stress, primary hepatocyte cultures were incubated with or without ethanol at a concentration of 0.6%, and with 50 μM Stressin-1 or without peptide. After 48 hours, the numbers of dead and alive cells were determined by trypan blue exclusion (Table 3)."}, "[2]": {"test_system": "primary hepatocyte cultures", "assay": "Ethanol toxic stress in primary hepatocyte cultures (trypan blue exclusion)", "assay_type": "cell-based", "conditions": "with 0.6% ethanol; 50 μM peptide; 48 hours", "protocol": "as §1"}}, "note": "Where no end group is shown, it is not given here. [ ]: non-standard residue; d: D form.", "data": [{"substance": "SSLSVDYPTRYP [Stressin-4]", "values": [{"measurement": "Incidence of cell death induced by hyperthermia", "setting": "L12 cells with p53", "value": 80, "unit": "%"}]}, {"substance": "PYPLPPL ([dP][dY][dP][dL][dP][dP][dL]; also: retro-inverso) [modified Stressin-1 peptide, retro-inverso Stressin-1 peptide, D-amino acids in reversed order]", "values": [{"measurement": "mice dead", "setting": "BALB/c mice; after 17 days", "value": 29, "unit": "%"}, {"measurement": "mice recovered from radiation disease", "setting": "BALB/c mice; after 40 days", "value": 57, "unit": "%"}]}, {"substance": "DLSTDALHYRTA [Stressin-2]", "values": [{"measurement": "Incidence of cell death induced by hyperthermia", "setting": "L12 cells with p53", "value": 90, "unit": "%"}, {"measurement": "cells rescued from p53-mediated cell death", "setting": "L12 cells", "value": 25, "unit": "%"}]}, {"substance": "HPTNQQSLWRWP [Stressin-3]", "values": [{"measurement": "Incidence of cell death induced by hyperthermia", "setting": "L12 cells with p53", "value": 80, "unit": "%"}]}, {"substance": "LPPLPYP [Stressin-1, LPPLPYP]", "values": [{"measurement": "viability at 48 h, 50 µM", "setting": "[1]", "value": 100, "unit": "%"}, {"measurement": "Survival of hepatocytes", "setting": "[2]", "value": 20, "unit": "%"}]}]}
